{
  "source": "ChEMBL document CHEMBL1201862",
  "about": "“PubChem BioAssay data set” (2004)",
  "assay_in_all_cases": "inhibition of tumour cell growth, NCI panel, 48 h",
  "key": {"[1]": {"system": "786-0"}, "[2]": {"system": "A498"}, "[3]": {"system": "A549"}, "[4]": {"system": "ACHN"}, "[5]": {"system": "CAKI-1"}, "[6]": {"system": "CCRF-CEM"}, "[7]": {"system": "COLO 205"}, "[8]": {"system": "DLD-1"}, "[9]": {"system": "DMS-114"}, "[10]": {"system": "DMS-273"}, "[11]": {"system": "EKVX"}, "[12]": {"system": "HCT-116"}, "[13]": {"system": "HCT-15"}, "[14]": {"system": "HL-60"}, "[15]": {"system": "HOP-62"}, "[16]": {"system": "HOP-92"}, "[17]": {"system": "HT-29"}, "[18]": {"system": "IGROV-1"}, "[19]": {"system": "K562"}, "[20]": {"system": "KM-20L2"}, "[21]": {"system": "KM12"}, "[22]": {"system": "LOX IMVI"}, "[23]": {"system": "LXFL 529"}, "[24]": {"system": "M14"}, "[25]": {"system": "M19-MEL"}, "[26]": {"system": "Malme-3M"}, "[27]": {"system": "NCI-H226"}, "[28]": {"system": "NCI-H23"}, "[29]": {"system": "NCI-H460"}, "[30]": {"system": "NCI-H522"}, "[31]": {"system": "OVCAR-3"}, "[32]": {"system": "OVCAR-4"}, "[33]": {"system": "OVCAR-5"}, "[34]": {"system": "OVCAR-8"}, "[35]": {"system": "RPMI-8226"}, "[36]": {"system": "RXF 393"}, "[37]": {"system": "RXF 631"}, "[38]": {"system": "SF-268"}, "[39]": {"system": "SF-295"}, "[40]": {"system": "SF-539"}, "[41]": {"system": "SK-MEL-28"}, "[42]": {"system": "SK-MEL-2"}, "[43]": {"system": "SK-MEL-5"}, "[44]": {"system": "SK-OV-3"}, "[45]": {"system": "SN12C"}, "[46]": {"system": "SNB-19"}, "[47]": {"system": "SNB-75"}, "[48]": {"system": "SNB-78"}, "[49]": {"system": "SW-620"}, "[50]": {"system": "TK-10"}, "[51]": {"system": "U-251"}, "[52]": {"system": "UACC-257"}, "[53]": {"system": "UACC-62"}, "[54]": {"system": "UO-31"}, "[55]": {"system": "XF498"}},
  "note": "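Assay format: 96-well plates, 48-hour exposure. GI50: concentration for 50% inhibition of growth.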 Active and inactive are the calls of the source. No stated cut-off is given here; in the data, active = GI50 up to about 1.1 µM and inactive = higher.",
  "data": [
    {"smiles": "CCc1cccc(C)c1N1C(=O)C(=O)C(c2nc3ccccc3o2)/C(=N/NC(=S)NN)C1=O", "note": "(stereo not given)", "values": [
      {"measurement": "GI50", "setting": "[1]", "result": "> 100 µM (inactive)"},
      {"measurement": "GI50", "setting": "[2]", "result": "> 100 µM (inactive)"},
      {"measurement": "GI50", "setting": "[3]", "result": "> 100 µM (inactive)"},
      {"measurement": "GI50", "setting": "[4]", "result": "> 100 µM (inactive)"},
      {"measurement": "GI50", "setting": "[5]", "result": "> 100 µM (inactive)"},
      {"measurement": "GI50", "setting": "[6]", "result": "> 100 µM (inactive)"},
      {"measurement": "GI50", "setting": "[7]", "result": "> 100 µM (inactive)"},
      {"measurement": "GI50", "setting": "[8]", "result": "> 100 µM (inactive)"},
      {"measurement": "GI50", "setting": "[9]", "result": "> 100 µM (inactive)"},
      {"measurement": "GI50", "setting": "[10]", "result": "> 100 µM (inactive)"},
      {"measurement": "GI50", "setting": "[11]", "result": "> 100 µM (inactive)"},
      {"measurement": "GI50", "setting": "[12]", "result": "> 100 µM (inactive)"},
      {"measurement": "GI50", "setting": "[13]", "result": "> 100", "unit": "µM"},
      {"measurement": "GI50", "setting": "[14]", "result": "> 100 µM (inactive)"},
      {"measurement": "GI50", "setting": "[15]", "result": "> 100 µM (inactive)"},
      {"measurement": "GI50", "setting": "[16]", "result": "> 100 µM (inactive)"},
      {"measurement": "GI50", "setting": "[17]", "result": "> 100 µM (inactive)"},
      {"measurement": "GI50", "setting": "[18]", "result": "> 100 µM (inactive)"},
      {"measurement": "GI50", "setting": "[19]", "result": "> 100 µM (inactive)"},
      {"measurement": "GI50", "setting": "[20]", "result": "> 100 µM (inactive)"},
      {"measurement": "GI50", "setting": "[21]", "result": "> 100 µM (inactive)"},
      {"measurement": "GI50", "setting": "[22]", "result": "> 100 µM (inactive)"},
      {"measurement": "GI50", "setting": "[23]", "result": "> 100 µM (inactive)"},
      {"measurement": "GI50", "setting": "[24]", "result": "> 100 µM (inactive)"},
      {"measurement": "GI50", "setting": "[25]", "result": "> 100 µM (inactive)"},
      {"measurement": "GI50", "setting": "[26]", "result": "> 100 µM (inactive)"},
      {"measurement": "GI50", "setting": "[27]", "result": "> 100 µM (inactive)"},
      {"measurement": "GI50", "setting": "[28]", "result": "> 100 µM (inactive)"},
      {"measurement": "GI50", "setting": "[29]", "result": "> 100 µM (inactive)"},
      {"measurement": "GI50", "setting": "[30]", "result": "> 100 µM (inactive)"},
      {"measurement": "GI50", "setting": "[31]", "result": "> 100 µM (inactive)"},
      {"measurement": "GI50", "setting": "[32]", "result": "> 100 µM (inactive)"},
      {"measurement": "GI50", "setting": "[33]", "result": "> 100 µM (inactive)"},
      {"measurement": "GI50", "setting": "[34]", "result": "> 100 µM (inactive)"},
      {"measurement": "GI50", "setting": "[35]", "result": "> 100 µM (inactive)"},
      {"measurement": "GI50", "setting": "[36]", "result": "> 100 µM (inactive)"},
      {"measurement": "GI50", "setting": "[37]", "result": "> 100 µM (inactive)"},
      {"measurement": "GI50", "setting": "[38]", "result": "> 100 µM (inactive)"},
      {"measurement": "GI50", "setting": "[39]", "result": "> 100 µM (inactive)"},
      {"measurement": "GI50", "setting": "[40]", "result": "> 100 µM (inactive)"},
      {"measurement": "GI50", "setting": "[41]", "result": "> 100 µM (inactive)"},
      {"measurement": "GI50", "setting": "[42]", "result": "> 100 µM (inactive)"},
      {"measurement": "GI50", "setting": "[43]", "result": "> 100 µM (inactive)"},
      {"measurement": "GI50", "setting": "[44]", "result": "> 100 µM (inactive)"},
      {"measurement": "GI50", "setting": "[45]", "result": "> 100 µM (inactive)"},
      {"measurement": "GI50", "setting": "[46]", "result": "> 100 µM (inactive)"},
      {"measurement": "GI50", "setting": "[47]", "result": "> 100 µM (inactive)"},
      {"measurement": "GI50", "setting": "[48]", "result": "> 100 µM (inactive)"},
      {"measurement": "GI50", "setting": "[49]", "result": "> 100 µM (inactive)"},
      {"measurement": "GI50", "setting": "[50]", "result": "> 100 µM (inactive)"},
      {"measurement": "GI50", "setting": "[51]", "result": "> 100 µM (inactive)"},
      {"measurement": "GI50", "setting": "[52]", "result": "> 100 µM (inactive)"},
      {"measurement": "GI50", "setting": "[53]", "result": "> 100 µM (inactive)"},
      {"measurement": "GI50", "setting": "[54]", "result": "> 100 µM (inactive)"},
      {"measurement": "GI50", "setting": "[55]", "result": "> 100 µM (inactive)"}
    ]}
  ]
}
